Calls of active or inactive are those of the source. The calls are words filed in the database; no cut-off is given here.
Tests used:
[1] = target: Toll-like receptor 2 (Homo sapiens) (UniProt O60603); experiment: Agonist activity at human recombinant TLR2 expressed in HEK293 cells by SEAP reporter assay; format: cell-based
[2] = target: Toll-like receptor 5 (Homo sapiens) (UniProt O60602); experiment: Agonist activity at human recombinant TLR5 expressed in HEK293 cells at 10 uM by SEAP reporter assay; format: cell-based
Chain of Toll-like receptor 5 (Homo sapiens) (O60602 whole entry): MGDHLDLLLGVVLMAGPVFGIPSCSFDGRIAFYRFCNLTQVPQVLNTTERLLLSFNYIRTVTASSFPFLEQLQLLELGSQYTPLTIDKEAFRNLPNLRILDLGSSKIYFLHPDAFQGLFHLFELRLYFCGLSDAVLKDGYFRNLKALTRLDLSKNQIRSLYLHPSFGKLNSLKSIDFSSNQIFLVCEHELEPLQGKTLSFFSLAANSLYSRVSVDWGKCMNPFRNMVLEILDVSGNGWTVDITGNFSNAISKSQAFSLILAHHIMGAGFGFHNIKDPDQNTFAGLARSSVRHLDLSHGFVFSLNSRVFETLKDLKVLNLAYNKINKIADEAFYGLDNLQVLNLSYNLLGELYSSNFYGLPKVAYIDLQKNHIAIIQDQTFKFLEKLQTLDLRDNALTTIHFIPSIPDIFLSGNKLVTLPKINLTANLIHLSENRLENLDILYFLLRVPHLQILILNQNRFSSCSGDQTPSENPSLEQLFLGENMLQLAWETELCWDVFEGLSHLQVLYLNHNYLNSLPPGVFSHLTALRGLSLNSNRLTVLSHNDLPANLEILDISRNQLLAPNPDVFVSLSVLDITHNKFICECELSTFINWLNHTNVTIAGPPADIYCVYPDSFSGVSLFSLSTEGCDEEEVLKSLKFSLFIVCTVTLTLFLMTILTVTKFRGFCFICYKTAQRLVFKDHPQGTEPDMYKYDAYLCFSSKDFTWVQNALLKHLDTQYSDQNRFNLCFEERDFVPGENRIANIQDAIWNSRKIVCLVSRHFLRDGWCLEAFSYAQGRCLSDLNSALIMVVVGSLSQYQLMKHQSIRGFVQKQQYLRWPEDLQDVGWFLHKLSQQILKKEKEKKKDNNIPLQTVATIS

[3] = Cytotoxicity against human PBMC by WST-1 cell proliferation assay; format: cell-based; conditions: PBMC (peripheral blood mononuclear cells)
[4] = system: HEK293; experiment: Agonist activity at chimeric extracellular domain of human TLR4 fused with mouse intracellular domain expressed in HEK293 cells by NFkappaB reporter assay; format: cell-based
[5] = system: PBMC; experiment: Induction of TNFalpha production in human PBMC at 10 uM by ELISA; format: functional, cell-based
[6] = target: T1, Toll-like receptor 4 (Homo sapiens, UniProt O00206); experiment: Agonist activity at human recombinant TLR4 expressed in HEK293 cells by SEAP reporter assay; format: cell-based
T1 sequence (O00206 whole entry): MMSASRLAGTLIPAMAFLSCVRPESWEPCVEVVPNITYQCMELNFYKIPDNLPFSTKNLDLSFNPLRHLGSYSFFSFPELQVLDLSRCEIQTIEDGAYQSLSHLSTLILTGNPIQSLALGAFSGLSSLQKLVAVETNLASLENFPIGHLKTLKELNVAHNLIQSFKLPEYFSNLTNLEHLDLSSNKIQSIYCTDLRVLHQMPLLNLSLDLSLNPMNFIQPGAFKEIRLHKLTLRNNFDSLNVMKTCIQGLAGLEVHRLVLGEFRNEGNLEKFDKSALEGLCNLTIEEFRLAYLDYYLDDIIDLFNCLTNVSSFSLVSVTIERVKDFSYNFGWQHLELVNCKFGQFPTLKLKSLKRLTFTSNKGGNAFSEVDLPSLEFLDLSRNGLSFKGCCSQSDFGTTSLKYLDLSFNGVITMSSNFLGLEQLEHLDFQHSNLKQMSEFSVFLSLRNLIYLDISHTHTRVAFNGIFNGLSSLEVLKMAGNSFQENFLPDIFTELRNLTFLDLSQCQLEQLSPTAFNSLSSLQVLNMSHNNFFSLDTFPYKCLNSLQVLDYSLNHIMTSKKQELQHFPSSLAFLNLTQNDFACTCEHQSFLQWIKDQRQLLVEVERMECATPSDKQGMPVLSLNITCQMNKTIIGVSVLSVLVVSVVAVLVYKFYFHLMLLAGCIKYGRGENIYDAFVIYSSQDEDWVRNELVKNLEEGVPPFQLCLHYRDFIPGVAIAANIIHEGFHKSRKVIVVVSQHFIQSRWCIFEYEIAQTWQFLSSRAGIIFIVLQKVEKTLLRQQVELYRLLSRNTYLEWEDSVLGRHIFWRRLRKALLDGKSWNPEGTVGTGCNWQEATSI

[7] = system: PBMC; experiment: Induction of IL-10 production in human PBMC at 10 uM by ELISA; format: functional, cell-based
[8] = target: Toll-like receptor 3 (Homo sapiens) (UniProt O15455); experiment: Agonist activity at human recombinant TLR3 expressed in HEK293 cells at 10 uM by SEAP reporter assay; format: cell-based
Chain of Toll-like receptor 3 (Homo sapiens) (O15455 whole entry): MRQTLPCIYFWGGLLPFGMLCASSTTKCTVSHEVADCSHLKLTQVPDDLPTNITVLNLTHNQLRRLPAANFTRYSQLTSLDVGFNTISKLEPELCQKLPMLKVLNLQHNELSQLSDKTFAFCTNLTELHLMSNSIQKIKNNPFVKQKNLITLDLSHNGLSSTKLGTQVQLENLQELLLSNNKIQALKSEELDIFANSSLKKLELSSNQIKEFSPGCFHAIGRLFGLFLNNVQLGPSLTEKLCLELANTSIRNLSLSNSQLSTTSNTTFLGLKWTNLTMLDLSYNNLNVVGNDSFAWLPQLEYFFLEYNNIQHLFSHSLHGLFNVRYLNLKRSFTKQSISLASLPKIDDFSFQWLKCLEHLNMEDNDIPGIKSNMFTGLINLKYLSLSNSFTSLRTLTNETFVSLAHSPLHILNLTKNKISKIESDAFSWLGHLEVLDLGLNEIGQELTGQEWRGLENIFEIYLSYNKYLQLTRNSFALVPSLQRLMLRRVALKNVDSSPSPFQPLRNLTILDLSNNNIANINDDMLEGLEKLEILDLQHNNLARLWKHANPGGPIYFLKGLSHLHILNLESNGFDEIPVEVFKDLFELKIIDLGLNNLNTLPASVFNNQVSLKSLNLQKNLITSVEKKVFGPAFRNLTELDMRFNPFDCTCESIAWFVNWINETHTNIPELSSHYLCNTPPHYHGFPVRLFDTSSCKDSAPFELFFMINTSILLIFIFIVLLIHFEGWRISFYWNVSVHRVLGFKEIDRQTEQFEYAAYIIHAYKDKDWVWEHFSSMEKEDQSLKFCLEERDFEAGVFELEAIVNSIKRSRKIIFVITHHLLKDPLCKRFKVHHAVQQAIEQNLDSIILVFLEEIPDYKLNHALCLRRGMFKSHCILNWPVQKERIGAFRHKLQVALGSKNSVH

[9] = system: PBMC; experiment: Suppression of PHA-induced IL-5 release in human PBMC at 10 uM by ELISA; format: functional, cell-based
[10] = target: T1, Toll-like receptor 4; experiment: Agonist activity at human recombinant TLR4 expressed in HEK293 cells coexpressed with mouse MD2 assessed as TNFalpha response by NFkappaB reporter assay; format: cell-based
[11] = system: PBMC; experiment: Induction of IL-12p40 production in human PBMC at 10 uM by ELISA; format: functional, cell-based
[12] = target: T2, Toll-like receptor 7 (Homo sapiens) (UniProt Q9NYK1); experiment: Agonist activity at human recombinant TLR7 expressed in HEK293 cells at 10 uM by SEAP reporter assay; format: cell-based
T2 sequence (whole entry): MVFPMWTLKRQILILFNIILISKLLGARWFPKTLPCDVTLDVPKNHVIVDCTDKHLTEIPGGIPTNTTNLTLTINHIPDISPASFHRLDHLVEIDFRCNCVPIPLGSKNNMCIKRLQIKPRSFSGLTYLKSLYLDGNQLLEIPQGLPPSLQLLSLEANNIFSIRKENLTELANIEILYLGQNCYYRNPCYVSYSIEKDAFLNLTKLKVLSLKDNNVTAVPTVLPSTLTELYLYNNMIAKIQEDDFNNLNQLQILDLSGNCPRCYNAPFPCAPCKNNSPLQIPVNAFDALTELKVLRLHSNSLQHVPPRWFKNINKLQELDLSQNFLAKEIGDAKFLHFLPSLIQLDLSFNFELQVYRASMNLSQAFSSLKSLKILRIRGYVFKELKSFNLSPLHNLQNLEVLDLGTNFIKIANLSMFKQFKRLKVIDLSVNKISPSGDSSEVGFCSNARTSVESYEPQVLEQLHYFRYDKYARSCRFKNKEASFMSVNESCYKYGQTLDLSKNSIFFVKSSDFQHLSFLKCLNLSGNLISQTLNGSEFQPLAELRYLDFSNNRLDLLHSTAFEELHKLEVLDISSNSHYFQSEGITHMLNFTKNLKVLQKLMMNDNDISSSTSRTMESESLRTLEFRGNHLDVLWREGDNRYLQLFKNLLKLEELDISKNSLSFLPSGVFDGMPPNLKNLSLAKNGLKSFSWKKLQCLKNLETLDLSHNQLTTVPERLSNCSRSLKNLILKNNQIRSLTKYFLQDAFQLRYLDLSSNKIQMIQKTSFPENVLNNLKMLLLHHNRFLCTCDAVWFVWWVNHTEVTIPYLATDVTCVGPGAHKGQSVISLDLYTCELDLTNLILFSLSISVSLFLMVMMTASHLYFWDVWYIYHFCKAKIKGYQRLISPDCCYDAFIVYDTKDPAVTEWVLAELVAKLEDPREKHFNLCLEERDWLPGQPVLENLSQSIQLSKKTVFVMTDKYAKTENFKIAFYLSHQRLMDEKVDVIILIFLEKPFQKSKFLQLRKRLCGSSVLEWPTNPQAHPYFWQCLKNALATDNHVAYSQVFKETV

[13] = target: T1, Toll-like receptor 4; experiment: Intrinsic activity at human recombinant TLR4 expressed in HEK293 cells by SEAP reporter assay relative to LPS; format: cell-based
[14] = target: T1, Toll-like receptor 4; experiment: Agonist activity at chimeric extracellular domain of human TLR4 fused with human intracellular domain expressed in HEK293 cells by NFkappaB reporter assay; format: cell-based
[15] = system: PBMC; experiment: Cytotoxicity against PHA-stimulated human PBMC at 20 uM by WST-1 cell proliferation assay; format: cell-based
[16] = target: TLR2/TLR6 (Homo sapiens) (UniProt O60603+Q9Y2C9); experiment: Agonist activity at human recombinant TLR2/6 expressed in HEK293 cells at 10 uM by SEAP reporter assay; format: cell-based

Chain of Toll-like receptor 2 (Homo sapiens) (O60603 whole entry): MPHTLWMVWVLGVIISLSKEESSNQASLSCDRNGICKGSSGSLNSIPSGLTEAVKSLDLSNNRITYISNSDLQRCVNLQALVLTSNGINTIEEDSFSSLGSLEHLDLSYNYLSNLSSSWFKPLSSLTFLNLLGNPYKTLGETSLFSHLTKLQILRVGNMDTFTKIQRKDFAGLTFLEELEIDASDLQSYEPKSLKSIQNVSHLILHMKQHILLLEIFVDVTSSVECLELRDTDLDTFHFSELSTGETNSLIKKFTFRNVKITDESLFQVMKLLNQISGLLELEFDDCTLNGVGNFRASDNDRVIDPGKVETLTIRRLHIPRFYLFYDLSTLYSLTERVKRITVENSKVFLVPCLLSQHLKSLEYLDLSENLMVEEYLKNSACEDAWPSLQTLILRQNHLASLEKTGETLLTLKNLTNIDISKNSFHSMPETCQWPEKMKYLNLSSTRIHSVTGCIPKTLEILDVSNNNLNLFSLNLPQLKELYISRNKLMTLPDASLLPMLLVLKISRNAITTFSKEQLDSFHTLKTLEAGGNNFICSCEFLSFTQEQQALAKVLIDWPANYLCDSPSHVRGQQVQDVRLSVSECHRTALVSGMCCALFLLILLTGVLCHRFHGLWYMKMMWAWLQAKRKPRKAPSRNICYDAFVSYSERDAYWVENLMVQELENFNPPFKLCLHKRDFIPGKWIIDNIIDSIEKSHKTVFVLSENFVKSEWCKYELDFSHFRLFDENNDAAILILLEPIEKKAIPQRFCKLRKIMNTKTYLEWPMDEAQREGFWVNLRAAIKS

Activity [1]: inactive | Activity [2]: inactive | EC50 [6]: 3.9 µM | Activity [8]: inactive | Activity [10]: inactive | Activity [12]: inactive | Intrinsic activity [13]: 0.95 | Activity [14]: Active | Activity [16]: inactive
SMILES: COc1cc([C@@H]2[C@@H](C)[C@H]3[C@@H]2c2c(c4ccccc4[nH]c2=O)OC3(C)C)cc(OC)c1OC
CC50 [3]: > 33 µM | Activity [4]: Active | Activity [5]: Active | Activity [7]: Active | inhibition [9]: Active | Activity [11]: Active | Activity [15]: Non-toxic
